This note sets out measurements from ChEMBL document CHEMBL1201862, “PubChem BioAssay data set” (2004).

Counter-ions that a name gives are not always drawn.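 Briefly, cells in 96-well plates were exposed to five compound concentrations for 48 h, and endpoints were estimated by linear interpolation. GI50 is the concentration that inhibits growth by half.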 Activity calls are given as the source filed them. No stated cut-off is given here; in the data, active = GI50 up to about 1.1 µM and inactive = higher.

Some test systems named below: OVCAR-5; SF-539; UO-31; UACC-62; SK-MEL-5; OVCAR-8; SNB-75; HT-29; KM12; MDA-MB-231; BT-549; TK-10; NCI-H23; CCRF-CEM; NCI-H460; Hs-578T; OVCAR-4; HCT-116; SK-MEL-28; SR.
What all share (experiment): DTP human tumour cell line panel, 48 h

On to `CCN(CC)CCNc1ccc(C)c2sc3ccccc3c(=O)c12` [LUCANTHONE HYDROCHLORIDE], for which the GI50 in the test with OVCAR-5 was 3.05 µM (inactive); in the test with SF-539, 2.75 µM (inactive); in the test with UO-31, 1.57 µM (inactive); with UACC-62 it was 1.84 µM (inactive); in the test on SK-MEL-5, 2.17 µM (inactive); in the test with OVCAR-8 it was 3.4 µM (inactive). In addition, the GI50 in the test with SNB-75 was 2.06 µM (inactive); in the test with HT-29 it was 1.67 µM (inactive); in the test with KM12 it was 3.09 µM (inactive); in the test with MDA-MB-231 it was 2.85 µM (inactive); in the test on BT-549 it was 4.36 µM (inactive); in the test with TK-10 it was 3.72 µM (inactive). For the same compound, the GI50 in the test with NCI-H23 was 3.33 µM (inactive); in the test on CCRF-CEM it was 1.91 µM (inactive); in the test on NCI-H460, 1.97 µM (inactive); in the test with Hs-578T, 2.15 µM (inactive); in the test on OVCAR-4, 4.66 µM (inactive); in the test with HCT-116 it was 1.91 µM (inactive). Moreover, the GI50 in the test on SK-MEL-28 was 1.82 µM (inactive); in the test with SR, 2.33 µM (inactive).

Turning to `O=C(/C=C\Nc1ccccc1O)C(F)(F)F`, the GI50 in the test with OVCAR-5 was > 100 µM (inactive); with SF-539, > 100 µM (inactive); with UO-31 it was 27.7 µM (inactive); with UACC-62 it was 45.4 µM (inactive); in the test on SK-MEL-5, 21 µM (inactive); with OVCAR-8, 90.4 µM (inactive). Moreover, the GI50 in the test on SNB-75, with HT-29, in the test with KM12, in the test with MDA-MB-231, in the test on BT-549 and with TK-10 was > 100 µM (inactive) throughout. The GI50 with NCI-H23 is 78.3 µM (inactive); with CCRF-CEM, 39 µM (inactive); in the test with NCI-H460, 67.5 µM (inactive); with Hs-578T, > 100 µM (inactive); with OVCAR-4 it was 71.9 µM (inactive); in the test with HCT-116, 29.5 µM (inactive). The figures for the GI50 in the test with SK-MEL-28 and in the test with SR were > 100 µM (inactive) and 36.3 µM (inactive), respectively.

Turning to `CC(=O)OC12CC(C)C3(O)C4C=C(C)C(=O)[C@@]4(O)CC(CO)=C[C@H]3C1C2(C)C` (stereo not given in full), the GI50 is > 10 µM (inactive) in the test with OVCAR-5; > 10 µM (inactive) in the test with SF-539; > 10 µM (inactive) in the test with UO-31; 771 µM (inactive) in the test with UACC-62; 5.2 µM (inactive) with SK-MEL-5; > 10 µM (inactive) in the test with OVCAR-8. Also, the GI50 was > 10 µM (inactive) in the test on SNB-75; > 10 µM (inactive) in the test on HT-29; > 10 µM (inactive) in the test on KM12; > 10 µM (inactive) in the test with MDA-MB-231; > 10 µM (inactive) in the test on BT-549; 2.34 µM (inactive) in the test on TK-10. Moreover, the GI50 is > 10 µM (inactive) in the test on NCI-H23; > 1000 µM (inactive) with CCRF-CEM; > 100 µM (inactive) in the test on NCI-H460; 0.82 µM (active) in the test on Hs-578T; > 10 µM (inactive) with OVCAR-4; > 10 µM (inactive) in the test on HCT-116. Besides, the GI50 with SK-MEL-28 and with SR was > 10 µM (inactive) throughout.

`CC(=O)N1CC[N+](C)(CCCCN2c3ccccc3Sc3cc(N=[N+]=[N-])ccc32)CC1`: the GI50 is > 100 µM (inactive) in the test with OVCAR-5; > 100 µM (inactive) in the test on SF-539; > 100 µM (inactive) in the test with UO-31; > 100 µM (inactive) with UACC-62; 62.8 µM (inactive) in the test with SK-MEL-5; > 100 µM (inactive) with OVCAR-8. Also, the GI50 with SNB-75, with HT-29, in the test on KM12, in the test on MDA-MB-231, in the test with BT-549 and with TK-10 was > 100 µM (inactive) in each case. For the same compound, the GI50 is > 100 µM (inactive) in the test with NCI-H23; > 100 µM (inactive) in the test with CCRF-CEM; > 100 µM (inactive) in the test with NCI-H460; 75.9 µM (inactive) with Hs-578T; 18 µM (inactive) in the test with OVCAR-4; > 100 µM (inactive) with HCT-116. Besides, the GI50 in the test with SK-MEL-28 and in the test on SR was > 100 µM (inactive) throughout.

On to `CSc1c(C#N)c(O)nc(N)c1C(=O)Nc1ccc(C)cc1`, for which the GI50 in the test with OVCAR-5 was > 100 µM (inactive); in the test on SF-539, > 100 µM (inactive); in the test with UO-31, 31.4 µM (inactive); in the test on UACC-62 it was > 100 µM (inactive); in the test with SK-MEL-5, > 100 µM (inactive); with OVCAR-8 it was > 100 µM (inactive). The GI50 with SNB-75, in the test on HT-29, in the test on KM12, with MDA-MB-231, in the test on BT-549 and with TK-10 was > 100 µM (inactive) in each case. Besides, the GI50 with NCI-H23 is 90.6 µM (inactive); in the test with CCRF-CEM it was 97.5 µM (inactive); in the test on NCI-H460, > 100 µM (inactive); in the test on Hs-578T, > 100 µM (inactive); in the test on OVCAR-4 it was > 100 µM (inactive); with HCT-116, > 100 µM (inactive). In addition, the GI50 with SK-MEL-28 and in the test on SR was > 100 µM (inactive) in each case.

On to `Cc1cc(NC(=O)NC(=O)c2ccccc2N(C)C)ccc1Oc1ncc(Br)cn1`, for which the GI50 in the test with OVCAR-5 is 8.11 µM (inactive); with SF-539, 0.267 µM (active); with UO-31 it was 2.04 µM (inactive); in the test with UACC-62, 0.301 µM (active); in the test with SK-MEL-5, 0.179 µM (active); in the test with OVCAR-8, 1.1 µM (active). The GI50 is 0.135 µM (active) with SNB-75; 0.305 µM (active) in the test on HT-29; 0.359 µM (active) in the test with KM12; 1.45 µM (inactive) in the test on MDA-MB-231; 0.731 µM (active) in the test with BT-549; 4.51 µM (inactive) in the test with TK-10. Also, the GI50 in the test with NCI-H23 is 1.17 µM (inactive); with CCRF-CEM, 0.237 µM (active); with NCI-H460, 0.403 µM (active); in the test on Hs-578T it was 0.267 µM (active); in the test with OVCAR-4, 6.68 µM (inactive); with HCT-116 it was 0.439 µM (active). Also, the results for the GI50 with SK-MEL-28 and with SR were 0.64 µM (active) and 0.0541 µM (active), respectively.

Take `C=CCOc1ccc(C(=N/NC(=O)c2ccccc2)/N=N/c2ccccc2)cc1OC`: the GI50 is > 100 µM (inactive) in the test on OVCAR-5; > 100 µM (inactive) in the test with SF-539; 92.9 µM (inactive) with UO-31; 71.1 µM (inactive) with UACC-62; 50.5 µM (inactive) in the test with SK-MEL-5; 65.3 µM (inactive) in the test on OVCAR-8. Also, the GI50 was > 100 µM (inactive) in the test with SNB-75; 46.5 µM (inactive) in the test with HT-29; 54.2 µM (inactive) with KM12; 70.6 µM (inactive) with MDA-MB-231; 42.5 µM (inactive) in the test with BT-549; > 100 µM (inactive) in the test with TK-10. Moreover, the GI50 is 73.8 µM (inactive) in the test on NCI-H23; 36.6 µM (inactive) in the test on CCRF-CEM; 40.6 µM (inactive) in the test with NCI-H460; 70.8 µM (inactive) in the test on Hs-578T; 89.9 µM (inactive) in the test on OVCAR-4; 67.9 µM (inactive) in the test on HCT-116. The values for the GI50 in the test with SK-MEL-28 and in the test with SR were > 100 µM (inactive) and 77.1 µM (inactive), respectively.

For `COc1cc2c(cc1OCCCC(=O)Nc1cc(C(=O)Nc3cc(C(=O)Nc4cc(C(=O)NCCCN(C)C)n(C)c4)n(C)c3)n(C)c1)N=C[C@@H]1CCCN1C2=O`, the GI50 was 3.16 µM (inactive) in the test with OVCAR-5; 3.42 µM (inactive) with SF-539; 1.66 µM (inactive) in the test on UO-31; 2.19 µM (inactive) with UACC-62; 2.24 µM (inactive) with SK-MEL-5; 1.79 µM (inactive) in the test on OVCAR-8. Besides, the GI50 is 3.3 µM (inactive) in the test on SNB-75; 1.91 µM (inactive) in the test on HT-29; 16.3 µM (inactive) in the test with KM12; 2.3 µM (inactive) in the test with MDA-MB-231; 1.96 µM (inactive) with BT-549; 1.87 µM (inactive) in the test on TK-10. For the same compound, the GI50 in the test on NCI-H23 is 1.77 µM (inactive); in the test with CCRF-CEM it was 0.348 µM (active); with NCI-H460, 3.21 µM (inactive); in the test with Hs-578T it was 2.94 µM (inactive); in the test on OVCAR-4, 1.95 µM (inactive); in the test with HCT-116 it was 1.69 µM (inactive). Besides, the GI50 in the test on SK-MEL-28 is 2.15 µM (inactive); in the test on SR, 0.367 µM (active).

Usually GI50 stands for the concentration giving 50% growth inhibition.
